Patent publication US20250100996A1, “HETEROCYCLOALKYL AND HETEROARYL COMPOUNDS AND PHARMACEUTICAL COMPOSITIONS THAT MODULATE IKZF2” (Plexium, Inc., priority 2021, published 2025)

Experiments:
IKZF3 (Aiolos) = molecular target: T1, IKZF3 (Aiolos) (Homo sapiens, UniProt Q9UKT9); test: IKZF3 reporter degradation assay (HEK 293T IKZF3-mNeonGreen reporter cell line); format: cell-based; conditions: HEK 293T IKZF3 reporter cells, 24 hours incubation
T1 construct: Leu-Asp junction (codons ctcgac before the linker); mScarlet (behind P2A) (C, cleaved yes); expressed in transfected cells
Summary of the method: (§1)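 Clonal HEK 293T lines stably expressing the IKZF-(GGGGS)3-mNeonGreen-P2A-mScarlet reporter were treated with compound for 24 h at 37 °C (≤0.5% DMSO, quadruplicate). Live imaging scored percent mNeonGreen-positive cells, with mScarlet used for segmentation. DC50 came from four-parameter logistic fits.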

IKZF1 (Ikaros) = molecular target: T2, IKZF1 (Ikaros) (Homo sapiens, UniProt Q13422); test: IKZF1 reporter degradation assay (HEK 293T IKZF1-mNeonGreen reporter cell line); format: cell-based; conditions: 24 hours incubation
T2 construct: mScarlet (behind P2A) (C, cleaved yes); expressed in transfected cells
Text: Polycistronic plasmids were constructed for the mammalian expression of fluorescent reporter fusions of human transcription factors IKZF1 (Ikaros), IKZF2 (Helios), and IKZF3 (Aiolos). The respective protein sequences had their C-terminal end joined to a GGGGS linker repeated three times followed by mNeonGreen, P2A sequence, and mScarlet. The DNA sequences of the open reading frames are as follows:
IKZF1, IKZF2, and IKZF3 constructs were cloned into the UCOE Hygromycin expression vectors (Millipore Sigma). Reporter constructs were transfected using cationic lipid reagents into adherent HEK 293T cells and stable integrants were selected by treatment with 200 μg/mL hygromycin B. Clonal populations were obtained from the population of stable integrants either by limiting dilution or fluorescence activated cell sorting.
The clonal stable cell lines were maintained under constant 200 μg/mL hygromycin B selection while being passaged for use in the degradation assays. […] The fluorescence intensity of the IKZF1/2/3-mNeonGreen (FITC channel) and mScarlet (PE channel) reporters were routinely analyzed by flow cytometry to confirm consistent expression levels between experiments.
The IKZF1/IKZF2/IKZF3 degradation assays were carried out by harvesting the HEK 293T reporter cell lines and resuspending the cells in media formulated for reduced background fluorescence (FluoroBrite; Thermo Fisher). The respective cell lines were seeded at a density of 4000 cells/well into black-walled 384-well optical grade assay tissue culture plates. The cells were incubated overnight at 37° C. to allow for attachment to the assay plate. Dilutions of the compounds were prepared in DMSO from 10 mM compound stocks. The assay plates were treated with appropriate concentrations of the compounds by dispensing the DMSO dilutions in quadruplicate wells with an upper limit of 0.5% final DMSO.
After 24 hours incubation with the compounds, the assay plates were imaged on an ImageXpress Pico microscopy system (cells maintained at 37° C. during imaging) to obtain the fluorescent readouts. The assay plates were imaged in the FITC and Tetramethylrhodamine (TRITC) channels to obtain the mNeonGreen fluorescence intensity (reporter degradation data) and mScarlet fluorescence intensity (for cell segmentation). 293T-IKZF1 and 293T-IKZF3 reporter cell lines were imaged with exposures of 500 milliseconds (ms) for both FITC and TRITC channels, while the 293T-IKZF2 reporter cell line was imaged with exposures of 1000 ms for FITC and 1250 ms for TRITC. The resulting data was analyzed with Cell Reporter Xpress software using the 2-channel cell scoring analysis with a “percent positive” readout. The TRITC channel was selected for the “nuclei” segmentation with a threshold of 20 while the FITC channel was selected for the “Marker 1” segmentation and a threshold of 100 for the IKZF1 and IKZF3 reporter lines. […] The minimum segmentation width was set to 6 micrometers and the maximum segmentation width was set to 15 micrometers for all cell lines. The DC50 calculations were determined by regression to best fit four-parameter logistic curves using GraphPad Prism.

IKZF2 (Helios) [1] = molecular target: T3, IKZF2 (Helios) (Homo sapiens, UniProt Q96SW2+Q9UKS7); test: IKZF2 reporter degradation assay (HEK 293T IKZF2-mNeonGreen reporter cell line); format: cell-based; conditions: HEK-293T, 24 h, 24 hours incubation
T3 construct: Leu-Asp junction (codons ctcgac before the linker); mScarlet (behind P2A) (C, cleaved yes); expressed in transfected cells
Summary of the method: as §1

IKZF2 (Helios) [2] = molecular target: T4, IKZF2 (Helios) (Homo sapiens, UniProt Q9UKS7); test: as above; format: cell-based; conditions: 24 hours incubation
T4 construct: Leu-Asp junction (codons ctcgac before the linker); mScarlet (behind P2A) (C, cleaved yes); expressed in transfected cells
Summary of the method: as §1

[3] = molecular target: T5, human E3 ligase component cereblon (CRBN) (Homo sapiens, UniProt Q96SW2); test: Cereblon (CRBN) target engagement, NanoBRET TE Intracellular E3 Ligase Assay in transfected HEK-293T cells; conditions: read-out: CRBN Binding EC50
T5 construct: host or cells: HEK293T
Summary of the method: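 HEK-293T cells transiently co-transfected with NanoLuc-CRBN (N-terminal NanoLuc) and DDB1 were dosed with CRBN tracer and an 11-point compound series (typically 10 μM to 100 pM) for 2 h at 37° C. BRET at 450/610 nm gave IC50 by four-parameter logistic fit.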

[4] = 1 μM compound, HEK 293T IKZF2 reporter cells

T4 sequence (Q9UKS7 whole entry): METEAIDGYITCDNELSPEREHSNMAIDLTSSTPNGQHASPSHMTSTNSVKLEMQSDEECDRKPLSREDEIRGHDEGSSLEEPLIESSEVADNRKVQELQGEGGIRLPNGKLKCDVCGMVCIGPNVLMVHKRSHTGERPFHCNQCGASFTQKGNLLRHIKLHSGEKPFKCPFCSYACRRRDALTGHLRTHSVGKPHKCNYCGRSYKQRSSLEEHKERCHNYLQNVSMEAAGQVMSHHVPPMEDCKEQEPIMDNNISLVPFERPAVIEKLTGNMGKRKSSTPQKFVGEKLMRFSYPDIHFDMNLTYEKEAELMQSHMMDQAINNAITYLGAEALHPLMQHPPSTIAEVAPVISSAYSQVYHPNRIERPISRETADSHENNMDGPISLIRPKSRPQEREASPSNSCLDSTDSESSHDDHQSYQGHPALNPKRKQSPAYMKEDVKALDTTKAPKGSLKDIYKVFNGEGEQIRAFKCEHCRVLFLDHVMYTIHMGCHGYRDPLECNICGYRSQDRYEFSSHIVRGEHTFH
T4 sequence (Q96SW2 whole entry, further chain): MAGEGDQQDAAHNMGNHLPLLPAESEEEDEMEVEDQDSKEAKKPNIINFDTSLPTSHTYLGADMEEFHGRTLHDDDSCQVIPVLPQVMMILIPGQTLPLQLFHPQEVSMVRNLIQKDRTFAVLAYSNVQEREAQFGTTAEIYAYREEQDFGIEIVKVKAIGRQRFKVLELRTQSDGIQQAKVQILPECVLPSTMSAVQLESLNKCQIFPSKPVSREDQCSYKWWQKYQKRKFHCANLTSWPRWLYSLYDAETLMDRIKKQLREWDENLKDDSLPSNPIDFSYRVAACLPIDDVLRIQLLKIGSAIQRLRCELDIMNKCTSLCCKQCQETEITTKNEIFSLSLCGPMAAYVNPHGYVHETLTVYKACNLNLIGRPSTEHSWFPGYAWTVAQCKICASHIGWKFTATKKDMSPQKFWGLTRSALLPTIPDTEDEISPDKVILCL
T4 sequence (Q16531 whole entry partner): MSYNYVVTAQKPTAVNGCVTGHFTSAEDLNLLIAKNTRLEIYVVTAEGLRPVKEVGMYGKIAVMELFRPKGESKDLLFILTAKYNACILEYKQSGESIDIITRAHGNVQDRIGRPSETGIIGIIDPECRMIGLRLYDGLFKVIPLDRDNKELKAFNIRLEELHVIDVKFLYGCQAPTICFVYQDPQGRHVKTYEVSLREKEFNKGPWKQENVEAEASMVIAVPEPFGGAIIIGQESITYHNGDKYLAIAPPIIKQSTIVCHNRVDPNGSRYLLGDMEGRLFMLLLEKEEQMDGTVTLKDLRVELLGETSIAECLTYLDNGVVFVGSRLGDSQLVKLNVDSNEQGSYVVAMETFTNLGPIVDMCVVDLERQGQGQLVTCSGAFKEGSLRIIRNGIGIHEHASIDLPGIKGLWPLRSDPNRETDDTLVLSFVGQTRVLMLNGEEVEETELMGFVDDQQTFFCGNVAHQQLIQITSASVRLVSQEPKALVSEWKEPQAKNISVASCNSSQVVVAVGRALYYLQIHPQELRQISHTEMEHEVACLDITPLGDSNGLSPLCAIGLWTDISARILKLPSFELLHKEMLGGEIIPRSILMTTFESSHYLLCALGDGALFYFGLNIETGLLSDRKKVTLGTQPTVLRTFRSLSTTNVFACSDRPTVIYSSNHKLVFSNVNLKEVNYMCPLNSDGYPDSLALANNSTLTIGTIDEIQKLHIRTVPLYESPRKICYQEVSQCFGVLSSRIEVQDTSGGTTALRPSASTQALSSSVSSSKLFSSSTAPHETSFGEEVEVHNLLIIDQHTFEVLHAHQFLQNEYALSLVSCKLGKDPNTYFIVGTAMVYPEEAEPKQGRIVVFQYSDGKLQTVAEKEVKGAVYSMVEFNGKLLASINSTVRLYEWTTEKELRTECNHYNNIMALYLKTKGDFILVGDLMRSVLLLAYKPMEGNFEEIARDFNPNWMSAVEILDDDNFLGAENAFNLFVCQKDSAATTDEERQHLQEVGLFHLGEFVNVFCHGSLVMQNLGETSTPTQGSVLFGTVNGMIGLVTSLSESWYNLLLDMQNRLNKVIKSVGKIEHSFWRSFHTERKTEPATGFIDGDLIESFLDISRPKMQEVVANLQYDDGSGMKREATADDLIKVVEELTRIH
T3 sequence (Q9UKS7 whole entry): as the sequence (Q9UKS7 whole entry) above
T3 sequence (Q96SW2 whole entry): as the sequence (Q96SW2 whole entry, further chain) above
T3 sequence (Q16531 whole entry partner): as the sequence (Q16531 whole entry partner) above
T1 sequence (Q96SW2 whole entry partner): as the sequence (Q96SW2 whole entry, further chain) above
T1 sequence (Q16531 whole entry partner): as the sequence (Q16531 whole entry partner) above
T1 sequence (Q9UKT9 whole entry): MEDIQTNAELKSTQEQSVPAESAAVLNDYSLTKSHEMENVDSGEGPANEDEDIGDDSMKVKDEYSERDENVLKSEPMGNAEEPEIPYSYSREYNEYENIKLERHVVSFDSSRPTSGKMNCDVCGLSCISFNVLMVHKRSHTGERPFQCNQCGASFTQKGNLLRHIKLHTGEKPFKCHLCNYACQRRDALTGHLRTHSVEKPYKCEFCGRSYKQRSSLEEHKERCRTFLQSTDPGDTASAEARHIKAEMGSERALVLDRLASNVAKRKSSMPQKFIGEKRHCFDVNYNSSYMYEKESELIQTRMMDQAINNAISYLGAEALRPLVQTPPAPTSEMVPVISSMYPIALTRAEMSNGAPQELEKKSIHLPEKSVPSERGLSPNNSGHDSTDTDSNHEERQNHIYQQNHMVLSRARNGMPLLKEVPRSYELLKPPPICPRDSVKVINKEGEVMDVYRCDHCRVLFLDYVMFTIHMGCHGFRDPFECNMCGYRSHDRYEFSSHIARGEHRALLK
T2 sequence (Q96SW2 whole entry partner): as the sequence (Q96SW2 whole entry, further chain) above
T2 sequence (Q16531 whole entry partner): as the sequence (Q16531 whole entry partner) above
T2 sequence (Q13422 whole entry): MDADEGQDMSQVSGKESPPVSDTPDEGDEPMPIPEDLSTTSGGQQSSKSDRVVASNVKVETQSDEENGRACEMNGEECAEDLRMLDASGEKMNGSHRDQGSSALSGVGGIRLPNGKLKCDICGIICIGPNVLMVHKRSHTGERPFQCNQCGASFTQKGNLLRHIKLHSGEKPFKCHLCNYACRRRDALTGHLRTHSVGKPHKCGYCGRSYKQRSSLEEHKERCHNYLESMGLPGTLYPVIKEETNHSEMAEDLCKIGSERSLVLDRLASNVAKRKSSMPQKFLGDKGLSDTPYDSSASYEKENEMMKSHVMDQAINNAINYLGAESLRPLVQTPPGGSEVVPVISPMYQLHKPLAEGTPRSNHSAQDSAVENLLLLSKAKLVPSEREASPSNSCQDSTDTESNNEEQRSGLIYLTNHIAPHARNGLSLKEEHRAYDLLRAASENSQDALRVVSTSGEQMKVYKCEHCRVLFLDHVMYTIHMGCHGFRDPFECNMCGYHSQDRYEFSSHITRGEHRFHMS
T5 sequence (Q96SW2 whole entry): as the sequence (Q96SW2 whole entry, further chain) above
T5 sequence (Q16531 whole entry partner): as the sequence (Q16531 whole entry partner) above

Compound | DC50 (IKZF3 (Aiolos)) [nM] | DC50 (IKZF1 (Ikaros); HEK 293T IKZF1 reporter cells) [nM] | inhibition at 1 µM (IKZF2 (Helios) [1]; [4]) [%] | DC50 (IKZF2 (Helios) [2]; HEK 293T IKZF2 reporter cells) [nM] | EC50 [3] [nM] | DC50 (IKZF1 (Ikaros); HEK 293T IKZF1-mNeonGreen reporter) [nM] | inhibition at 1 µM (IKZF2 (Helios) [1]; @ 1 μM, HEK 293T IKZF2-mNeonGreen reporter) [%] | DC50 (IKZF2 (Helios) [2]; HEK 293T IKZF2-mNeonGreen reporter) [nM]
O=C1CCC(N2Cc3cc(OC4CCCCC4N4CC(c5c[nH]c6ccccc56)C4)ccc3C2=O)C(=O)N1 (stereo not shown) [Compound 61-B, 3-(5-((2-(3-(1H-indol-3-yl)azetidin-1-yl)cyclohexyl)oxy)-1-oxoisoindolin-2-yl)piperidine-2,6-dione] | > 30000 | > 30000 | 55.8 | 26 |  |  |  | 
O=C1CCC(N2Cc3cc(OC4CCCCC4N4CC(c5cnc6ccccc6n5)C4)ccc3C2=O)C(=O)N1 (stereo not shown) [Compound 21-B, 3-(1-oxo-5-((2-(3-(quinoxalin-2-yl)azetidin-1-yl)cyclohexyl)oxy)isoindolin-2-yl)piperidine-2,6-dione] | > 30000 | > 30000 | 72.5 | 38.2 |  |  |  | 
O=C1CCC(N2Cc3cc(OC4CCCCC4N4CC(c5ncc(Cl)cn5)C4)ccc3C2=O)C(=O)N1 (stereo not shown) [Compound 26-B, 3-(5-((2-(3-(5-chloropyrimidin-2-yl)azetidin-1-yl)cyclohexyl)oxy)-1-oxoisoindolin-2-yl)piperidine-2,6-dione] | > 30000 | > 30000 | 78.4 | 525 |  |  |  | 
O=C1CCC(N2Cc3cc(OC4CCCCC4N4CC(c5cccc6[nH]ncc56)C4)ccc3C2=O)C(=O)N1 (stereo not shown) [Compound 71-B, 3-(5-((2-(3-(1H-indazol-4-yl)azetidin-1-yl)cyclohexyl)oxy)-1-oxoisoindolin-2-yl)piperidine-2,6-dione] | > 30000 | > 30000 | 79.3 | 28.3 |  |  |  | 
O=C1CCC(N2Cc3cc(OC4CCCCC4N4CC(c5ccccn5)C4)ccc3C2=O)C(=O)N1 (stereo not shown) [Compound 51-B, 3-(1-oxo-5-((2-(3-(pyridin-2-yl)azetidin-1-yl)cyclohexyl)oxy)isoindolin-2-yl)piperidine-2,6-dione] | > 30000 | > 30000 | 24 | 321 |  |  |  | 
O=C1CCC(N2Cc3cc(O[C@H]4CCCC[C@@H]4N4CC(n5cccn5)C4)ccc3C2=O)C(=O)N1 (stereo partly drawn) [Compound 81-B, 3-(5-(((1S,2S)-2-(3-(1H-pyrazol-1-yl)azetidin-1-yl)cyclohexyl)oxy)-1-oxoisoindolin-2-yl)piperidine-2,6-dione] | > 30000 | > 30000 | 78 | 96.5 |  |  |  | 
O=C1CCC(N2Cc3cc(OC4CCCCC4N4CC(c5ccnc(C(F)(F)F)c5)C4)ccc3C2=O)C(=O)N1 (stereo not shown) [Compound 1-B, 3-(1-oxo-5-((2-(3-(2-(trifluoromethyl)pyridin-4-yl)azetidin-1-yl)cyclohexyl)oxy)isoindolin-2-yl)piperidine-2,6-dione] | > 30000 | > 30000 | 32.1 | 525 |  |  |  | 
O=C1CCC(N2Cc3cc(O[C@H]4CCCC[C@@H]4N4CC(c5ccncc5)C4)ccc3C2=O)C(=O)N1 (single isomer, unassigned) [Compound 85-B] |  |  |  |  | 28 | > 30000 | 27.5 | 216
O=C1CCC(N2Cc3cc(OC4CCCCC4N4CC(c5ccncc5)C4)ccc3C2=O)C(=O)N1 (stereo not shown) [Compound 31-B, 3-(1-oxo-5-((2-(3-(pyridin-4-yl)azetidin-1-yl)cyclohexyl)oxy)isoindolin-2-yl)piperidine-2,6-dione] | > 30000 | > 30000 | 74 | 47.8 |  |  |  | 
COc1ccc(C2CN(C3CCCCC3Oc3ccc4c(c3)CN(C3CCC(=O)NC3=O)C4=O)C2)cn1 (stereo not shown) [Compound 16-B, 3-(5-((2-(3-(6-methoxypyridin-3-yl)azetidin-1-yl)cyclohexyl)oxy)-1-oxoisoindolin-2-yl)piperidine-2,6-dione] | > 30000 | > 30000 | 80.6 | 22.6 |  |  |  | 
O=C1CCC(N2Cc3cc(OC4CCCCC4N4CC(c5ncccn5)C4)ccc3C2=O)C(=O)N1 (stereo not shown) [Compound 46-B, 3-(1-oxo-5-((2-(3-(pyrimidin-2-yl)azetidin-1-yl)cyclohexyl)oxy)isoindolin-2-yl)piperidine-2,6-dione] | > 30000 | > 30000 | 39 | 232 |  |  |  | 
COc1cc(C2CN(C3CCCCC3Oc3ccc4c(c3)CN(C3CCC(=O)NC3=O)C4=O)C2)ccn1 (stereo not shown) [Compound 11-B, 3-(5-((2-(3-(2-methoxypyridin-4-yl)azetidin-1-yl)cyclohexyl)oxy)-1-oxoisoindolin-2-yl)piperidine-2,6-dione] | > 30000 | > 30000 | 78.2 | 20.7 |  |  |  | 
O=C1CCC(N2Cc3cc(OC4CCCCC4N4CC(c5cnccn5)C4)ccc3C2=O)C(=O)N1 (stereo not shown) [Compound 2-B, 3-(1-oxo-5-((2-(3-(pyrazin-2-yl)azetidin-1-yl)cyclohexyl)oxy)isoindolin-2-yl)piperidine-2,6-dione] | > 30000 | > 30000 | 63.1 | 120 |  |  |  | 
O=C1CCC(N2Cc3cc(OC4CCCCC4N4CC(c5ncc(F)cn5)C4)ccc3C2=O)C(=O)N1 (stereo not shown) [Compound 6-B, 3-(5-((2-(3-(5-fluoropyrimidin-2-yl)azetidin-1-yl)cyclohexyl)-oxy)-1-oxoisoindolin-2-yl)piperidine-2,6-dione] | > 30000 | > 30000 | 74.9 | 29.9 |  |  |  | 
O=C1CCC(N2Cc3cc(OC4CCCCC4N4CC(c5cccnc5)C4)ccc3C2=O)C(=O)N1 (stereo not shown) [Compound 36-B, 3-(1-oxo-5-((2-(3-(pyridin-3-yl)azetidin-1-yl)cyclohexyl)oxy)isoindolin-2-yl)piperidine-2,6-dione] | > 30000 | > 30000 | 49.9 | 188 |  |  |  | 
O=C1CCC(N2Cc3cc(O[C@H]4CCCC[C@@H]4N4CC(C5CCOCC5)C4)ccc3C2=O)C(=O)N1 (stereo partly drawn) [Compound 1-A, 3-(1-oxo-5-(((1S,2S)-2-(3-(tetrahydro-2H-pyran-4-yl)azetidin-1-yl)cyclohexyl)oxy)isoindolin-2-yl)piperidine-2,6-dione] | > 30000 | > 30000 | 83.4 | 8.89 |  |  |  | 
